Measurements: patent US8362008B2 (The University Of Edinburgh, priority 2007, dated 2013)
pIC50: −log10 of the molar value.

Target: T1, human 11β-HSD1 enzyme (Homo sapiens, UniProt P28845)
T1 construct: stably transfected with a construct containing the full-length gene coding for the human 11β-HSD1 enzyme; expressed in transfected cells; host or cells: HEK293 (HEK293/11β-HSD1 cells)
Experiment: Cellular in vitro 11β-HSD1 enzyme inhibition assay (SPA, HEK293/11β-HSD1 cells)
Assay type: cell-based
Settings: HEK293, less than or equal to 1000 nM (1 μM)
Protocol: Cellular In Vitro 11β-HSD1 Enzyme Inhibition Assay
Compounds were assessed by a Scintillation Proximity Assay (SPA) performed according to the following protocol:
HEK293 cells were stably transfected with a construct containing the full-length gene coding for the human 11β-HSD1 enzyme to create HEK293/11β-HSD1 cells. Cells were routinely cultured in DMEM containing 10% calf foetal serum, 1% glutamine, and 1% penicillin and streptomycin. Prior to assay, cells were plated at 2×10^4 cells/well in 96-well poly-D-Lys coated flat-bottomed microplates and incubated in 5% CO2, 95% O2 at 37° C. for 24 hours. The media in each well was removed immediately before assay.
Compounds to be tested were dissolved in DMSO at 10 mM and serially diluted into water containing 10% DMSO. Diluted compounds at a volume of 10 μL were added to wells of a 96-well V-bottomed microplate. […] This solution (100 μL/well) was transferred to the plate containing the cells. The plate was then incubated in 5% CO2, 95% O2 at 37° C. for 2 hours.
Following this incubation, 50 μL of the assay solution was transferred to each well of a 96-well scintillation microplate. A mixture consisting of anti-mouse YSi SPA beads, pre-mixed with anti-cortisol antibody in assay buffer (50 mM Tris.HCl, pH 7.0; 300 mM NaCl; 1 mM EDTA, 5% glycerol) was prepared and 50 μL added to each well of the scintillation microplate. An adhesive strip was applied to the microplate and the plate gently shaken for at least 2 hours at room temperature, and then spun briefly on a low speed centrifuge. The plate was read on a scintillation counter suitable for 96-well microplates. For the calculation of percentage inhibition, a series of wells were added to the plate that represented the assay maximum and the assay minimum: one set that contained substrate without cells (mimimum) and another set that contained substrate and cells without any compound (maximum).
The calculation of median inhibitory concentration (IC50) values for the compounds was performed using GraphPad Prism® software. Dose-response curves for each compound were plotted as fractional inhibition and data fitted to the four parameter logistic equation.

T1 sequence (P28845 whole entry): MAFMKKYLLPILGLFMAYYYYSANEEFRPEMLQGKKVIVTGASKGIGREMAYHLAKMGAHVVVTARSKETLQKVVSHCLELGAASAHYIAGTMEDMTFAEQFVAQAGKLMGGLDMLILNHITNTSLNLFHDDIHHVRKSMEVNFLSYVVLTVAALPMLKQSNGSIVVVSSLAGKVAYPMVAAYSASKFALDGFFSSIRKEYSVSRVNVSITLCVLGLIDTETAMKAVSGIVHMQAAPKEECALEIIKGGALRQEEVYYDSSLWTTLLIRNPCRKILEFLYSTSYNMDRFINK

Row | SMILES | pIC50
1 | O=C1CCCN1c1cc(C(=O)N2CCCC3CCCCC32)cs1 (centres unmarked) [CC-049] | ≥ 6.00
2 | O=C1COCCN1c1cc(C(=O)N2CCCC3CCCCC32)cs1 (centres unmarked) [CC-050] | ≥ 6.00
3 | O=C(c1ccno1)N1CCC(c2cc(C(=O)N3CCCC4CCCCC43)cs2)CC1 (centres unmarked) [CC-051] | ≥ 6.00
4 | O=C(CO)N1CCC(c2cc(C(=O)N3CCCC4CCCCC43)cs2)CC1 (centres unmarked) [CC-054] | ≥ 6.00
5 | O=C(CN1CCOCC1)N1CCC(c2cc(C(=O)N3CCCC4CCCCC43)cs2)CC1 (centres unmarked) [CC-059] | ≥ 6.00
6 | CC1(C)CC2CC(C)(CN2C(=O)c2csc(C3CCOCC3)c2)C1 (centres unmarked) [CC-069] | ≥ 6.00
7 | CC1(C)CC2CC(C)(CN2C(=O)c2cc(C3CCOCC3)sc2Cl)C1 (centres unmarked) [CC-070] | ≥ 6.00
8 | CC1(C)CC2CC(C)(CN2C(=O)c2csc(C3CCNCC3)c2)C1 (centres unmarked) [CC-072] | ≥ 6.00
9 | CC1(C)CC2CC(C)(CN2C(=O)c2csc(C3CCCNC3)c2)C1 (centres unmarked) [CC-073] | ≥ 6.00
10 | CC1(C)CC2CC(C)(CN2C(=O)c2csc(C3=CCNCC3)c2)C1 (centres unmarked) [CC-074] | ≥ 6.00
11 | O=C(c1csc(C2CCOCC2)c1)N1CCCC2(CCCCC2)C1 [CC-077] | ≥ 6.00
12 | CC(C)C(=O)N1CCC(c2cc(C(=O)N3CCCC4CCCCC43)cs2)CC1 (centres unmarked) [CC-081] | ≥ 6.00
13 | COCC(=O)N1CCC(c2cc(C(=O)N3CCCC4CCCCC43)cs2)CC1 (centres unmarked) [CC-083] | ≥ 6.00
14 | Cn1cncc1C(=O)N1CCC(c2cc(C(=O)N3CCCC4CCCCC43)cs2)CC1 (centres unmarked) [CC-084] | ≥ 6.00
15 | CC(=O)N1CC=C(c2cc(C(=O)N3CCCC4CCCCC43)cs2)CC1 (centres unmarked) [CC-086] | ≥ 6.00
16 | O=C(CO)N1CC=C(c2cc(C(=O)N3CCCC4CCCCC43)cs2)CC1 (centres unmarked) [CC-090] | ≥ 6.00
17 | CS(=O)(=O)NCCC(=O)N1CC=C(c2cc(C(=O)N3CCCC4CCCCC43)cs2)CC1 (centres unmarked) [CC-091] | ≥ 6.00
18 | CC1(C)CCCN(C(=O)c2csc(C3CCN(C(=O)CCNS(C)(=O)=O)CC3)c2)CC1 [CC-097] | ≥ 6.00
19 | O=C(C1CC1)N1CCC(c2cc(C(=O)N3CCCC4CCCCC43)cs2)CC1 (centres unmarked) [CC-099] | ≥ 6.00

Row | SMILES | pIC50
20 | O=C(c1cccnc1)N1CCC(c2cc(C(=O)N3CCCC4CCCCC43)cs2)CC1 (centres unmarked) [CC-103] | ≥ 6.00
21 | NC(=O)CN1CCC(c2cc(C(=O)N3CCCC4CCCCC43)cs2)CC1 (centres unmarked) [CC-108] | ≥ 6.00
22 | CC1(C)CCCN(C(=O)c2csc(C3CCN(C(=O)CO)CC3)c2)CC1 [CC-113] | ≥ 6.00
23 | O=C(N1CCCC1)N1CCC(c2cc(C(=O)N3CCCC4CCCCC43)cs2)CC1 (centres unmarked) [CC-116] | ≥ 6.00
24 | O=C(c1csc(C2=CCNCC2)c1)N1CCCCC1c1ccccc1 (centres unmarked) [CC-123] | ≥ 6.00
25 | O=C(c1csc(C2=CCNCC2)c1)N1CCCC(F)(F)CC1 [CC-126] | ≥ 6.00
26 | CNC(=O)N1CCC(c2cc(C(=O)N3CCCCC3c3ccccc3)cs2)CC1 (centres unmarked) [CC-132] | ≥ 6.00
27 | O=C(Cc1ccccn1)N1CCC(c2cc(C(=O)N3CCCC4CCCCC43)cs2)CC1 (centres unmarked) [CC-133] | ≥ 6.00
28 | O=C(Cc1cccnc1)N1CCC(c2cc(C(=O)N3CCCC4CCCCC43)cs2)CC1 (centres unmarked) [CC-134] | ≥ 6.00
29 | O=C(c1csc(C2CCSCC2)c1)N1CCCC2CCCCC21 (centres unmarked) [CC-136] | ≥ 6.00
30 | CC1(C)CCCN(C(=O)c2csc(C3CCN(C(C)(C)C(N)=O)CC3)c2)CC1 [CC-137] | ≥ 6.00
31 | NC(=O)N1CCC(c2cc(C(=O)N3CCCC4CCCCC43)cs2)CC1 (centres unmarked) [CC-144] | ≥ 6.00
32 | CS(=O)(=O)NCC(=O)N1CCC(c2cc(C(=O)N3CCCC4CCCCC43)cs2)CC1 (centres unmarked) [CC-148] | ≥ 6.00
33 | O=C(CCc1ccncc1)N1CCC(c2cc(C(=O)N3CCCC4CCCCC43)cs2)CC1 (centres unmarked) [CC-149] | ≥ 6.00
34 | O=C(CCc1c[nH]cn1)N1CCC(c2cc(C(=O)N3CCCC4CCCCC43)cs2)CC1 (centres unmarked) [CC-151] | ≥ 6.00
35 | Cn1ccnc1CN1CCC(c2cc(C(=O)N3CCCC4CCCCC43)cs2)CC1 (centres unmarked) [CC-154] | ≥ 6.00
36 | O=C(NCCCO)N1CCC(c2cc(C(=O)N3CCCC4CCCCC43)cs2)CC1 (centres unmarked) [CC-161] | ≥ 6.00
37 | COCCNC(=O)N1CCC(c2cc(C(=O)N3CCCC4CCCCC43)cs2)CC1 (centres unmarked) [CC-164] | ≥ 6.00
38 | O=C(NCc1ccccn1)N1CCC(c2cc(C(=O)N3CCCC4CCCCC43)cs2)CC1 (centres unmarked) [CC-166] | ≥ 6.00

Same assay, conditions: HEK293, more than 1000 nM (1.0 μM) and less than or equal to 30 μM

Row | SMILES | pIC50
39 | O=C(c1ccno1)N1CCC(c2cc(C(=O)N3CCCC4CCCCC43)cs2)CC1 (centres unmarked) [CC-052] | 4.52 to 6.00
40 | CNCC(=O)N1CCC(c2cc(C(=O)N3CCCC4CCCCC43)cs2)CC1 (centres unmarked) [CC-056] | 4.52 to 6.00
41 | O=C(CN1CCOCC1)N1CCC(c2cc(C(=O)N3CCCC4CCCCC43)cs2)CC1 (centres unmarked) [CC-060] | 4.52 to 6.00
42 | O=C(CCN1CCCCC1)N1CCC(c2cc(C(=O)N3CCCC4CCCCC43)cs2)CC1 (centres unmarked) [CC-062] | 4.52 to 6.00
43 | CN(C)CC(=O)N1CCC(c2cc(C(=O)N3CCCC4CCCCC43)cs2)CC1 (centres unmarked) [CC-063] | 4.52 to 6.00
44 | CC(C)OC(=O)N1CCC(c2cc(C(=O)N3CCCC4CCCCC43)cs2)CC1 (centres unmarked) [CC-067] | 4.52 to 6.00
45 | CC1(C)CC2CC(C)(CN2C(=O)c2csc(C3CCN(C(=O)OCc4ccccc4)CC3)c2)C1 (centres unmarked) [CC-071] | 4.52 to 6.00
46 | O=C(OCc1ccccc1)N1CCC(c2cc(C(=O)N3CCCC4(CCCCC4)C3)cs2)CC1 [CC-078] | 4.52 to 6.00
47 | O=C(c1csc(C2CCNCC2)c1)N1CCCC2(CCCCC2)C1 [CC-079] | 4.52 to 6.00
48 | O=C(c1csc(C2CCCNC2)c1)N1CCCC2(CCCCC2)C1 (centres unmarked) [CC-080] | 4.52 to 6.00
49 | O=C(CCCN1CCCCC1)N1CCC(c2cc(C(=O)N3CCCC4CCCCC43)cs2)CC1 (centres unmarked) [CC-082] | 4.52 to 6.00
50 | COCCCC(=O)N1CCC(c2cc(C(=O)N3CCCC4CCCCC43)cs2)CC1 (centres unmarked) [CC-085] | 4.52 to 6.00
51 | O=C(c1csc(C2CCN(CCS(=O)(=O)N3CCCC3)CC2)c1)N1CCCC2CCCCC21 (centres unmarked) [CC-087] | 4.52 to 6.00
52 | COCCCN1CCC(c2cc(C(=O)N3CCCC4CCCCC43)cs2)CC1 (centres unmarked) [CC-089] | 4.52 to 6.00
53 | O=C(c1csc(C2CCN(S(=O)(=O)c3ccccc3)CC2)c1)N1CCCC2CCCCC21 (centres unmarked) [CC-092] | 4.52 to 6.00
54 | O=C(c1csc(C2CCN(S(=O)(=O)C3CC3)CC2)c1)N1CCCC2CCCCC21 (centres unmarked) [CC-093] | 4.52 to 6.00
55 | COC(=O)N1CCC(c2cc(C(=O)N3CCCC(C)(C)CC3)cs2)CC1 [CC-094] | 4.52 to 6.00
56 | CC1(C)CCCN(C(=O)c2csc(C3CCN(C(=O)c4ccno4)CC3)c2)CC1 [CC-095] | 4.52 to 6.00
57 | CC1(C)CCCN(C(=O)c2csc(C3CCN(S(C)(=O)=O)CC3)c2)CC1 [CC-096] | 4.52 to 6.00
58 | CC(=O)N1CCC(c2cc(C(=O)N3CCCCC3c3ccccc3)cs2)CC1 (centres unmarked) [CC-098] | 4.52 to 6.00

Row | SMILES | pIC50
59 | CC(C)(C)C(=O)N1CCC(c2cc(C(=O)N3CCCC4CCCCC43)cs2)CC1 (centres unmarked) [CC-100] | 4.52 to 6.00
60 | O=C(CO)N1CCC(c2cc(C(=O)N3CCCCC3c3ccccc3)cs2)CC1 (centres unmarked) [CC-102] | 4.52 to 6.00
61 | CC(C)S(=O)(=O)N1CCC(c2cc(C(=O)N3CCCC4CCCCC43)cs2)CC1 (centres unmarked) [CC-104] | 4.52 to 6.00
62 | CC(C)CS(=O)(=O)N1CCC(c2cc(C(=O)N3CCCC4CCCCC43)cs2)CC1 (centres unmarked) [CC-105] | 4.52 to 6.00
63 | O=C(c1csc(C2CCNCC2)c1)N1CCCCCC1c1ccccc1 (centres unmarked) [CC-107] | 4.52 to 6.00
64 | Cc1cc(C(=O)N2CCC(c3cc(C(=O)N4CCCC5CCCCC54)cs3)CC2)no1 (centres unmarked) [CC-109] | 4.52 to 6.00
65 | O=C(c1ccccc1)N1CCC(c2cc(C(=O)N3CCCC4CCCCC43)cs2)CC1 (centres unmarked) [CC-110] | 4.52 to 6.00
66 | O=C(c1csc(C2CCNCC2)c1)N1CCCCC1c1ccc(F)cc1 (centres unmarked) [CC-112] | 4.52 to 6.00
67 | O=C(CCn1ccnc1)N1CCC(c2cc(C(=O)N3CCCC4CCCCC43)cs2)CC1 (centres unmarked) [CC-117] | 4.52 to 6.00
68 | O=C(c1csc(C2CCN(c3ccccn3)CC2)c1)N1CCCC2CCCCC21 (centres unmarked) [CC-120] | 4.52 to 6.00
69 | CC1(C)CCCN(C(=O)c2csc(C3=CCNCC3)c2)CC1 [CC-124] | 4.52 to 6.00
70 | CC1(C)CCCCN(C(=O)c2csc(C3=CCNCC3)c2)C1 [CC-125] | 4.52 to 6.00
71 | CS(=O)(=O)NCCC(=O)N1CCC(c2cc(C(=O)N3CCCCC3c3ccccc3)cs2)CC1 (centres unmarked) [CC-128] | 4.52 to 6.00
72 | O=C(c1csc(C2CCN(c3nc4ccccc4o3)CC2)c1)N1CCCC2CCCCC21 (centres unmarked) [CC-129] | 4.52 to 6.00
73 | O=C(c1csc(C2CCNCC2)c1)N1CCC(F)(F)C2CCCCC21 (centres unmarked) [CC-131] | 4.52 to 6.00
74 | CC1(C)CCCN(C(=O)c2csc(C3CCN(CC(N)=O)CC3)c2)CC1 [CC-139] | 4.52 to 6.00
75 | O=C(c1csc(C2CCN(CC(O)CO)CC2)c1)N1CCCC2CCCCC21 (centres unmarked) [CC-153] | 4.52 to 6.00
76 | O=C1CCCN1CCCN1CCC(c2cc(C(=O)N3CCCC4CCCCC43)cs2)CC1 (stereo not drawn) [CC-156, cis-{1-(3-{4-[4-(Octahydro-quinoline-1-carbonyl)-thiophen-2-yl]-piperidin-1-yl}-propyl)-pyrrolidin-2-one] | 4.52 to 6.00
77 | CN(C)CCNC(=O)N1CCC(c2cc(C(=O)N3CCCC4CCCCC43)cs2)CC1 (centres unmarked) [CC-162] | 4.52 to 6.00
